Converted amounts (≈) assume the structure as drawn. Like-named read-outs stand apart in the source and are kept apart here.
Experiments:
Assay type in all cases: cell-based
E. coli M 50 = experiment: Antibacterial activity (MIC), agar dilution per CLSI; conditions: E. coli M 50 expressing ESBL, agar dilution
Procedure: (§1) The biological activity of representative compounds according to the invention against various bacterial strains was investigated. In a typical study, overnight grown bacterial cultures were diluted appropriately and inoculated on the agar media containing doubling dilutions of the test compounds. Observation for growth or no growth was performed after 16-20 hours of incubation at 35±2° C. in ambient air. The overall procedure was performed as per Clinical and Laboratory Standards Institute (CLSI) recommendations (Clinical and Laboratory Standards Institute (CLSI), Performance Standards for Antimicrobial Susceptibility Testing, 20th Informational Supplement, M 100-S20, Volume 30, No. 1, 2010).
(§2) The activities are expressed as MICs (mcg/ml).

E. coli 7 MP = experiment: as above; conditions: Table 3, E. coli 7 MP expressing ESBL
Procedure: as §1
(§3) Table 3 details antibacterial activity of representative compounds according to the invention against various E. coli strains (NCTC 13351, M 50 and 7 MP) expressing ESBL (Extended Spectrum Beta Lactamases).

E. coli NCTC 13351 = experiment: as above; conditions: 16-20 hours, 35±2° C.
Procedure: as §1, §3

K penumoniae H 521 = experiment: Antibacterial activity (MIC) against MDR Gram negative strains; conditions: Table 4; K penumoniae H 521, KPC ESBL, MDR; read-out: MIC
Procedure: as §1, §2

P. aeruginosa ATCC 27853 = experiment: as above; conditions: Pseudomonas aeruginosa, ATCC27853; Table 5; P. aeruginosa ATCC 27853; read-out: MIC
Procedure: as §1, §2

K penumoniae H 523 = experiment: as above; conditions: Table 4; K penumoniae H 523, KPC ESBL, MDR; read-out: MIC
Procedure: as §1, §2

K penumoniae H 525 = experiment: as above; conditions: Table 4; K penumoniae H 525, KPC ESBL, MDR; read-out: MIC
Procedure: as §1, §2

[1] = Table 3, E. coli NCTC 13351 expressing ESBL
[2] = Escherichia coli, M50, Table 3, read-out: MIC
[3] = Escherichia coli, read-out: MIC
[4] = Escherichia coli, NCTC13351, Table 3, E. coli NCTC 13351 expressing ESBL, read-out: MIC

SMILES | MIC (E. coli M 50; Table 3) | MIC (E. coli 7 MP) | MIC (E. coli NCTC 13351; [1]) | MIC (E. coli M 50; [2]) | MIC (E. coli 7 MP; [3]) | MIC (E. coli NCTC 13351; [4]) | further results
CC(C)(C)OC(=O)NNC(=O)[C@H]1CC[C@@H]2CN1C(=O)N2OS(=O)(=O)[O-].[Na+] (relative stereo) [Example 44, Sodium salt of trans-N′-(7-oxo-6-sulfooxy-1,6-diaza-bicyclo[3.2.1]octane-2-carboxylic acid)-hydrazinecarboxylic acid tert-butyl ester] | 32 µg/mL | 64 µg/mL | 32 µg/mL |  |  |  | 
CS(=O)(=O)N1CCC[C@H]1C(=O)NNC(=O)[C@H]1CC[C@@H]2CN1C(=O)N2OS(=O)(=O)[O-].[Na+] (relative stereo) [Example 50, Sodium salt of trans-sulfuric acid mono-[2-(N′—[(S)-1-methanesulfonyl-pyrrolidin-2-carbonyl]-hydrazinocarbonyl)-7-oxo-1,6-diaza-bicyclo[3.2.1]oct-6-yl]ester] | 16 µg/mL | 32 µg/mL | 16 µg/mL |  |  |  | 
CC(C)(C#N)C(=O)NNC(=O)[C@H]1CC[C@@H]2CN1C(=O)N2OS(=O)(=O)[O-].[Na+] (relative stereo) [Example 51, Sodium salt of trans-sulfuric acid mono-[2-(N′-(cyano-dimethyl-acetyl)-hydrazinocarbonyl)-7-oxo-1,6-diaza-bicyclo[3.2.1]oct-6-yl]ester] | 16 µg/mL | 32 µg/mL | 16 µg/mL |  |  |  | 
O=C1CC[C@@H](C(=O)NNC(=O)[C@H]2CC[C@@H]3CN2C(=O)N3OS(=O)(=O)[O-])N1.[Na+] (relative stereo) [Example 52, Sodium salt of trans-sulfuric acid mono-[2-(N′—[(S)-5-oxo-pyrrolidin-2-carbonyl]-hydrazinocarbonyl)-7-oxo-1,6-diaza-bicyclo[3.2.1]oct-6-yl]ester] | 0.5 µg/mL | 2 µg/mL | 0.5 µg/mL |  |  |  | 
O=C(O)c1cn(C2CC2)c2cc(N3CCNCC3)c(F)cc2c1=O [Ciprofloxacin, reference compound] |  |  |  |  |  |  | MIC (K penumoniae H 521): 32 µg/mL (≈ 96.6 µM); MIC (P. aeruginosa ATCC 27853): 0.5 µg/mL (≈ 1.51 µM); MIC (K penumoniae H 523): 8 µg/mL (≈ 24.1 µM); MIC (K penumoniae H 525): 32 µg/mL (≈ 96.6 µM)
O=C(O)CON1C(=O)N2C[C@H]1CC[C@H]2C(=O)NNC(=O)[C@@H]1CCCNC1 [Example 4, trans-{7-oxo-2-[N′—((R)-piperidin-3-carbonyl)-hydrazinocarbonyl]-1,6-diaza-bicyclo[3.2.1]-oct-6-yloxy}-acetic acid] |  |  |  | 8 µg/mL (≈ 21.7 µM) | 16 µg/mL (≈ 43.3 µM) | 8 µg/mL (≈ 21.7 µM) | 
O=C(CN1CCOCC1)NNC(=O)C1CCC2CN1C(=O)N2OS(=O)(=O)[O-].[Na+] (stereo not drawn) [Example 45, Sodium salt of trans-sulfuric acid mono-[2-(N′-(morpholin-4-yl-acetyl)-hydrazinocarbonyl)-7-oxo-1,6-diaza-bicyclo[3.2.1]oct-6-yl]ester] | 8 µg/mL | 8 µg/mL | 4 µg/mL |  |  |  | 
NC(=O)c1cccc(C(=O)NNC(=O)C2CCC3CN2C(=O)N3OS(=O)(=O)[O-])n1.[Na+] (stereo not drawn) [Example 46, Sodium salt of trans-sulfuric acid mono-[2-(N′-(6-carboxamido-pyridin-2-carbonyl)-hydrazinocarbonyl)-7-oxo-1,6-diaza-bicyclo[3.2.1]oct-6-yl]ester] | 64 µg/mL | 128 µg/mL | 32 µg/mL |  |  |  | 

Now from value to compound, other results behind:

MIC (E. coli M 50; Table 3) | MIC (E. coli 7 MP) | MIC (E. coli NCTC 13351; [1]) | MIC (E. coli M 50; [2]) | MIC (E. coli 7 MP; [3]) | MIC (E. coli NCTC 13351; [4]) | SMILES | further results
1 µg/mL (≈ 2.45 µM) | 4 µg/mL (≈ 9.79 µM) | 1 µg/mL (≈ 2.45 µM) |  |  |  | NC(=O)CCC(N)C(=O)NNC(=O)[C@H]1CC[C@@H]2CN1C(=O)N2OS(=O)(=O)O (relative stereo) [Example 24, trans-sulfuric acid mono-[2-(N′-(2-amino-4-carboxamido-butanoyl)-hydrazinocarbonyl)-7-oxo-1,6-diaza-bicyclo[3.2.1]oct-6-yl]ester] | 
 |  |  | 1 µg/mL (≈ 2.64 µM) | 4 µg/mL (≈ 10.5 µM) | 1 µg/mL (≈ 2.64 µM) | NCCCCC(=O)NNC(=O)[C@H]1CC[C@@H]2CN1C(=O)N2OS(=O)(=O)O (relative stereo) [Example 25, trans-sulfuric acid mono-[2-(N′-(5-amino-pentanoyl)-hydrazinocarbonyl)-7-oxo-1,6-diaza-bicyclo[3.2.1]oct-6-yl]ester] | 
 |  |  | 2 µg/mL (≈ 5.24 µM) | 8 µg/mL (≈ 21 µM) | 4 µg/mL (≈ 10.5 µM) | NCCOCC(=O)NNC(=O)[C@H]1CC[C@@H]2CN1C(=O)N2OS(=O)(=O)O (relative stereo) [Example 27, trans-sulfuric acid mono-[2-(N′-((2-aminoethoxy)-acetyl)-hydrazinocarbonyl)-7-oxo-1,6-diaza-bicyclo[3.2.1]oct-6-yl]ester] | 
 |  |  | 1 µg/mL (≈ 2.75 µM) | 4 µg/mL (≈ 11 µM) | 1 µg/mL (≈ 2.75 µM) | O=C(NNC(=O)[C@H]1CC[C@@H]2CN1C(=O)N2OS(=O)(=O)O)C1CNC1 (relative stereo) [Example 28, trans-sulfuric acid mono-[2-(N′-[azetidin-3-carbonyl]-hydrazinocarbonyl)-7-oxo-1,6-diaza-bicyclo[3.2.1]oct-6-yl]ester] | 
 |  |  | 16 µg/mL (≈ 42.4 µM) | 128 µg/mL (≈ 339 µM) | 32 µg/mL (≈ 84.8 µM) | O=C(NNC(=O)N1CCCC1)[C@H]1CC[C@@H]2CN1C(=O)N2OS(=O)(=O)O (relative stereo) [Example 29, trans-sulfuric acid mono-[2-(N′-[pyrrolidin-1-carbonyl]-hydrazinocarbonyl)-7-oxo-1,6-diaza-bicyclo[3.2.1]oct-6-yl]ester] | 
1 µg/mL (≈ 2.47 µM) | 4 µg/mL (≈ 9.87 µM) | 1 µg/mL (≈ 2.47 µM) |  |  |  | O=C(CC[C@@H]1CCCN1)NNC(=O)[C@H]1CC[C@@H]2CN1C(=O)N2OS(=O)(=O)O (relative stereo) [Example 31, trans-sulfuric acid mono-[2-(N′—[((S)-3-pyrrolidin-2-yl)-propionyl]-hydrazinocarbonyl)-7-oxo-1,6-diaza-bicyclo[3.2.1]oct-6-yl]ester] | 
 |  |  | 1 µg/mL (≈ 2.3 µM) | 4 µg/mL (≈ 9.21 µM) | 1 µg/mL (≈ 2.3 µM) | O=C(CC(=O)N1CCNCC1)NNC(=O)[C@H]1CC[C@@H]2CN1C(=O)N2OS(=O)(=O)O (relative stereo) [Example 40, trans-sulfuric acid mono-[2-(N′-(3-oxo-3-piperazin-1-yl-propionyl)-hydrazinocarbonyl)-7-oxo-1,6-diaza-bicyclo[3.2.1]oct-6-yl]ester] | 
 |  |  | 32 µg/mL (≈ 78.7 µM) | 64 µg/mL (≈ 157 µM) | 32 µg/mL (≈ 78.7 µM) | Nc1nc(C(=O)NNC(=O)[C@H]2CC[C@@H]3CN2C(=O)N3OS(=O)(=O)O)cs1 (relative stereo) [Example 42, trans-sulfuric acid mono-[2-(N′-(2-amino-thiazol-4-carbonyl)-hydrazinocarbonyl)-7-oxo-1,6-diaza-bicyclo[3.2.1]oct-6-yl]ester] | 
64 µg/mL | 128 µg/mL | 32 µg/mL |  |  |  | O=C(NNC(=O)N1CCOCC1)[C@H]1CC[C@@H]2CN1C(=O)N2OS(=O)(=O)O.[Na] (relative stereo) [Example 47, Sodium salt of trans-sulfuric acid mono-[2-(N′-(morpholin-4-oxo-carbonyl)-hydrazinocarbonyl)-7-oxo-1,6-diaza-bicyclo[3.2.1]oct-6-yl]ester] | 
8 µg/mL | 32 µg/mL | 16 µg/mL |  |  |  | NC(=O)N1CCC[C@H]1C(=O)NNC(=O)[C@H]1CC[C@@H]2CN1C(=O)N2OS(=O)(=O)[O-].[Na+] (relative stereo) [Example 48, Sodium salt of trans-sulfuric acid mono-[2-(N′—[(S)-1-carbamoyl-pyrrolidin-2-carbonyl]-hydrazinocarbonyl)-7-oxo-1,6-diaza-bicyclo [3.2.1]oct-6-yl]ester] | 
16 µg/mL | 16 µg/mL | 32 µg/mL |  |  |  | NC(=O)N1C[C@@H](F)C[C@H]1C(=O)NNC(=O)C1CCC2CN1C(=O)N2OS(=O)(=O)[O-].[Na+] (relative stereo) [Example 49, Sodium salt of trans-sulfuric acid mono-[2-(N′—[(2S,4S)-1-carbamoyl-4-fluoro-pyrrolidin-2-carbonyl]-hydrazinocarbonyl)-7-oxo-1,6-diaza-bicyclo[3.2.1]oct-6-yl]ester] | 
